Consider four compounds from patent US12473289B2, “Heterocyclic compounds as delta-5 desaturase inhibitors and methods of use” (Amgen Inc., priority 2019, dated 2025).

For assay [1], the target named is Delta-5-Desaturase (D5D) (Homo sapiens (Human), UniProt O60427). Put plainly: In vitro measurement of Delta-5-Desaturase inhibitory activity using DGLA-CoA and Arachidonyl-CoA mass spectrometric assays. Conditions: membrane preparations of D5D-overexpressing HEK293 6E cells; averaged over at least two independent runs. Type of assay: biochemical. In a few lines: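 Membranes from D5D-overexpressing HEK293 6E cells (10 μg/mL final) in Tris pH 7.5 with MgCl2, octyl glucoside and TCEP were mixed 1:1 with substrate solution (0.01 mM DGLA, 0.25 mM NADH, 0.25 mM ATP, 0.05 mM CoA) for 1 h at ambient temperature. RapidFire SPE-MS/MS MRM; IC50 by 4-parameter fit, ≥2 runs.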
Sequence of Delta-5-Desaturase (D5D) (Homo sapiens (Human), UniProt O60427) (O60427 whole entry, species assumed): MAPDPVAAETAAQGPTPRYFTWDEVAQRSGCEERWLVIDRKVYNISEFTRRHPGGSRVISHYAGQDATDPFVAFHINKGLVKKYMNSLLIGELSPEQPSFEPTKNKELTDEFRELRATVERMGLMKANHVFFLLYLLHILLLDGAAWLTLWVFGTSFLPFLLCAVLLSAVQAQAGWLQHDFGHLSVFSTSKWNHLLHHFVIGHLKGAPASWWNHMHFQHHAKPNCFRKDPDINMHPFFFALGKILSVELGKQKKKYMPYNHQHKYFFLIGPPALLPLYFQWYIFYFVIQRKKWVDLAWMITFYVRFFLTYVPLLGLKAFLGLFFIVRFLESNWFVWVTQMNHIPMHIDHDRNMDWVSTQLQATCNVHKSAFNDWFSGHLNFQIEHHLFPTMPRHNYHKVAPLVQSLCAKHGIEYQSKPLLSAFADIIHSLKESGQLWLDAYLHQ

Assay [2] deals with Delta-5-Desaturase (D5D) (Mus musculus (Mouse), UniProt Q920L1). Put plainly: In vivo measurement of Delta-5-Desaturase inhibitory activity (plasma AA/DGLA ratio in DIO mice). Conditions: single oral dose 30 mg/kg, read-out: Average % D5D Inhibition expressed as Plasma Endogenous AA/DGLA Ratio. On the procedure: In vivo Measurement of Delta-5-Desaturase Inhibitory Activity
Sequence of Delta-5-Desaturase (D5D) (Mus musculus (Mouse), UniProt Q920L1) (Q920L1 whole entry): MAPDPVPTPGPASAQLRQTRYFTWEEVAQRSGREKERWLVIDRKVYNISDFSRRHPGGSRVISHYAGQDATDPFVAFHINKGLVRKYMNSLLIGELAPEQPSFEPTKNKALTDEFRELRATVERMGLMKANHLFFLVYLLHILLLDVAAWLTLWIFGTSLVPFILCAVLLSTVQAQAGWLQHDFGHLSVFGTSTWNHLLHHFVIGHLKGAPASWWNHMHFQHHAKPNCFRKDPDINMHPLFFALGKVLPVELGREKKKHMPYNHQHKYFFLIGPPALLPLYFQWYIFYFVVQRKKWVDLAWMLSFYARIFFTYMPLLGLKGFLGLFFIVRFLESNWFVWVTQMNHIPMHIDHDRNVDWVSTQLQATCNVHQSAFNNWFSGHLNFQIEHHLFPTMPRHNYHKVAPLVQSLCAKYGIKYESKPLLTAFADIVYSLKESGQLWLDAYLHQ
Diet-induced obese (DIO; Jackson Laboratories strain #3800050) mice were used to screen for pharmacodynamic (PD) activity of test compounds. Generally, 14 to 24 week old DIO mice, were administered test compounds formulated in the vehicle of 2% hydroxypropyl methylcellulose (HPMC) and 1% Tween80. Animals were dosed on body weight by oral gavage with a single dose (30 mg/kg) for PD studies. Necropsy included plasma collection for PUFA analysis. 10 μl of plasma or standards diluted in surrogate matrix (65 g/l bovine serum albumin in Dulbecco's phosphate-buffered saline) were mixed with 10 μl of an internal standard (100 μM alpha-linolenic acid-d14 (ALA-d14, Cayman Chemical)) in a 96 well plate. 100 μl of 2N NAOH was added to the mixture for subsequent saponification at 65° C. for 1 hour. The mixture was then acidified with 50 μl of formic acid followed by two consecutive hexane extractions. Hexane (500 μl) was added and the mixture thoroughly mixed by vortexing, followed by centrifugation at 4,000 rpm for 15 min. The hexane phase was transferred to a new 1 ml 96 well plate and the remaining aqueous layer was extracted with hexane. The organic extracts were combined and the solvent was removed by placing the plate under nitrogen gas at 55° C. 250 μl of 90% methanol was added to the plate followed by vortexing for 2 minutes. 200 μl of the samples were transferred to a new 96 well polypropylene plate. The samples were analyzed on a LC-MS/MS for the following PUFAs: arachidonic acid (AA), dihomo-gamma-linolenic acid (DGLA), with ALA-d14 as the internal standard. Description of the LC-MS/MS method: 5 μl of sample was injected onto a Poroshell 120 EC-C18 3.0×50 mm, 1.9 μm id column. […] The PUFA peak areas were quantified by using the SCIEX Analyst software. […] The relative decrease of the AA/DGLA ratio of the test compound administered group relative to the vehicle administered group was calculated and used as an index for the degree of D5D inhibition.
The results presented in Table 27 were obtained using certain compounds described herein in the in vivo protocol described above.

Assay [3] relates to Diet-Induced Obese (DIO) mice. Briefly: Assessment of D5D inhibitor in Diet-Induced Obese (DIO) mice. The assay is classed as in vivo. Conditions: for Blood glucose: day 52, 4-hour fasted; for Cholesterol / Insulin / LDL cholesterol / Triglycerides: day 52, plasma; for Fat mass / Lean mass: day 54, EchoMRI; for AA / DGLA: day 56, plasma; for Body weight / Liver weights / epididymal WAT / inguinal WAT: day 56. From the text:
Assessment of D5D) Inhibitor in Diet-Induced Obese (DIO) Mice
Thirty-six male C57BL/6J DIO mice (Jackson Laboratories, stock No.: 380050) fed high-fat diet (Research Diets, Inc., D12492) for 14 weeks. All animals were given free access to water and chow. Animals were acclimated to per os dosing for 3 days prior to the start of the experiment. Animals were randomized on body weight, fat mass, lean mass, and blood glucose concentrations in to 4 groups of 8 animals per group. Animals were daily dosed per os with either: vehicle (2% hydroxypropyl methyl cellulose, 1% Tween 80 in water), Example 1-68 at 30 mg/kg, Example 1-34 at 10 mg/kg, and Example 1-27 at 10 mg/kg, all compounds were formulated in 2% hydroxypropyl methylcellulose, 1% Tween 80 in water. […] On day 52, a 4-hour fasted blood collection was performed, blood glucose was immediately measured, and plasma samples were created from the remaining blood and used to measure cholesterol, triglycerides, LDL cholesterol, and insulin. On day 54, body composition (EchoMRI) was determined. On day 56 the animals were sacrificed, and plasma was collected for measurement of DGLA and AA concentrations. Liver, epididymal white adipose tissue and inguinal white adipose tissue weights were recorded. Data was analyzed using GraphPad Prism v. 7.04.
All compounds led to weight loss over the course of the experiment (Table 28) compared to vehicle controls. Consistently fat and lean mass was reduced, along with lower inguinal and epididymal white adipose tissue (WAT) weights at necropsy. Blood glucose and plasma insulin levels were both reduced by the FADS1 inhibitors, along with reductions in plasma cholesterol, LDL cholesterol and triglycerides. Evidence of target engagement was established by observing increases in plasma DGLA and decreases in plasma AA.

Setting [4] is: day 50-52, 10 mg/kg daily per os.

SMILES strings stand for the structures.

The term IC50 denotes the concentration that gives 50% inhibition. Read a low IC50 as higher potency.

With `N#Cc1ccn2c(=O)c(-c3cnn(CC(F)(F)C(F)(F)F)c3)c(C(F)(F)F)nc2c1` [Example 1-27, 4-oxo-3-(1-(2,2,3,3,3-pentafluoropropyl)-1H-pyrazol-4-yl)-2-(trifluoromethyl)-4H-pyrido[1,2-a]pyrimidine-8-carbonitrile], on Delta-5-Desaturase (D5D) [1], half-maximal inhibition (IC50) required 18.7 nM. Besides, the inhibition in vivo at 30 mg/kg at Delta-5-Desaturase (D5D) [2] came to 78%. The compound also gave a Food consumption in assay [3] (day 0-2, 10 mg/kg daily per os) of 2.5 ± 0.1 g/day. For the same compound, the Food consumption in assay [3] (setting [4]) was 3.1 ± 0.1 g/day. For the same compound, in assay [3] (10 mg/kg daily per os), the Blood glucose was found to be 178.8 ± 7.5 mg/dL, the Cholesterol was 191.3 ± 14.5 mg/dL, the Insulin was determined as 3.3 ± 1.2 ng/mL and the LDL cholesterol stood at 104.6 ± 9.1 mg/dL. Further, in assay [3] (10 mg/kg daily per os), the Triglycerides is on record as 24.1 ± 1.2 mg/dL, the Fat mass was 16.9 ± 0.5 g, the Lean mass was determined as 28.1 ± 0.5 g and the AA turned out to be 60.8 ± 1.9 µg/mL. In addition, in assay [3] (10 mg/kg daily per os), the DGLA was 310.3 ± 13.7 µg/mL, the Body weight turned out to be 45.7 ± 1.1 g, the Liver weights turned out to be 2.8 ± 0.2 g and the “epididymal WAT” value is 1.8 ± 0.1 g. Moreover, in assay [3] (10 mg/kg daily per os), the “inguinal WAT” value turned out to be 1.9 ± 0.1 g.

For `COc1ccn2c(=O)c(-c3cnn(CC(F)(F)C(F)(F)F)c3)c(C(F)(F)F)nc2c1` [Example 1-68, 8-methoxy-3-(1-(2,2,3,3,3-pentafluoropropyl)-1H-pyrazol-4-yl)-2-(trifluoromethyl)-4H-pyrido[1,2-a]pyrimidin-4-one], at Delta-5-Desaturase (D5D) [1], half-maximal inhibition (IC50) required 11.6 nM. For the same compound, the inhibition in vivo at 30 mg/kg at Delta-5-Desaturase (D5D) [2] turned out to be 80%. Further, in assay [3] (day 0-2, 30 mg/kg daily per os), the Food consumption was 2.7 ± 0.1 g/day. The compound also gave a Food consumption in assay [3] (day 50-52, 30 mg/kg daily per os) of 2.6 ± 0.1 g/day. In assay [3] (30 mg/kg daily per os), this compound displayed a Blood glucose of 146.6 ± 7.1 mg/dL, a Cholesterol of 166.2 ± 7.8 mg/dL, an Insulin of 1.1 ± 0.2 ng/mL and an LDL cholesterol of 86.5 ± 12.5 mg/dL. In addition, in assay [3] (30 mg/kg daily per os), the Triglycerides is reported as 14.5 ± 1.0 mg/dL, the Fat mass was found to be 13.3 ± 1.0 g, the Lean mass is recorded as 26.7 ± 0.5 g and the AA came to 38.0 ± 1.6 µg/mL. Moreover, in assay [3] (30 mg/kg daily per os), the DGLA was 258.4 ± 8.5 µg/mL, the Body weight is on record as 40.7 ± 1.5 g, the Liver weights was determined as 2.9 ± 0.2 g and the “epididymal WAT” value came out at 1.6 ± 0.1 g. Further, in assay [3] (30 mg/kg daily per os), the “inguinal WAT” value was 1.6 ± 0.2 g.

Compound `COc1ccn2c(=O)c(-c3cnn(CC(F)(F)C(F)(F)F)c3)c(C(F)(F)F)nc2n1` [Example 1-34, 8-methoxy-3-(1-(2,2,3,3,3-pentafluoropropyl)-1H-pyrazol-4-yl)-2-(trifluoromethyl)-4H-pyrimido[1,2-a]pyrimidin-4-one] had an IC50 against Delta-5-Desaturase (D5D) [1] of 30.7 nM. Also, the inhibition in vivo at 30 mg/kg on Delta-5-Desaturase (D5D) [2] turned out to be 66%. The same compound yielded a Food consumption in assay [3] (day 0-2, 10 mg/kg daily per os) of 2.2 ± 0.1 g/day. The compound also displayed a Food consumption in assay [3] (setting [4]) of 3.0 ± 0.1 g/day. Moreover, in assay [3] (10 mg/kg daily per os), the Blood glucose is 150.5 ± 8.3 mg/dL, the Cholesterol is 177.1 ± 12.6 mg/dL, the Insulin is reported as 0.6 ± 0.2 ng/mL and the LDL cholesterol is recorded as 88.6 ± 9.2 mg/dL. In assay [3] (10 mg/kg daily per os), the Triglycerides is listed as 15.6 ± 2.3 mg/dL, the Fat mass was determined as 7.4 ± 0.9 g, the Lean mass was determined as 26.6 ± 0.7 g and the AA came out at 29.4 ± 0.9 µg/mL. Moreover, in assay [3] (10 mg/kg daily per os), the DGLA is 161.4 ± 8.5 µg/mL, the Body weight turned out to be 34.7 ± 1.6 g, the Liver weights was determined as 2.9 ± 0.3 g and the “epididymal WAT” value is given as 0.9 ± 0.1 g. Further, the “inguinal WAT” value in assay [3] (10 mg/kg daily per os) worked out at 0.8 ± 0.1 g.

In turn, `[2H]C([2H])([2H])Oc1ccn2c(=O)c(-c3ccc(OCC(F)(F)F)cc3)c(C(F)(F)F)nc2c1` [Example 11-2, 8-(methyloxy-d3)-3-(4-(2,2,2-trifluoroethoxy)phenyl)-2-(trifluoromethyl)-4H-pyrido[1,2-a]pyrimidin-4-one] gave an IC50 against Delta-5-Desaturase (D5D) [1] of 4 nM. Moreover, the inhibition in vivo at 30 mg/kg at Delta-5-Desaturase (D5D) [2] was 79%.
